How the values were obtained:
[1] = Fraction unbound in mouse brain homogenate at 5 uM incubated for 6 hrs shaking at 250 rpm by LC-MS/MS analysis; type: ADME, tissue-based
[2] = Displacement of [3]10-methoxy-N-(pyridin-3-yl-7-thia-2,5-diazatricyclo(6.4.0.0 2.6)-dodeca-1(12),3,5,8,10-pentaene-4-carboxamide from polyglutamine Q46 aggregate (unknown origin) by radio ligand binding assay; set-up: species or system Homo sapiens
[3] = target: Amyloid-beta precursor protein (Homo sapiens) (UniProt P05067); assay: Displacement of [3]10-methoxy-N-(pyridin-3-yl-7-thia-2,5-diazatricyclo(6.4.0.0 2.6)-dodeca-1(12),3,5,8,10-pentaene-4-carboxamide from human Amyloid beta plaques using AD postmortem patient brain homogenates at 1 uM incubated for 2 hr by radio ligand binding assay relative to control; type: tissue-based
Chain of Amyloid-beta precursor protein (Homo sapiens) (P05067 whole entry): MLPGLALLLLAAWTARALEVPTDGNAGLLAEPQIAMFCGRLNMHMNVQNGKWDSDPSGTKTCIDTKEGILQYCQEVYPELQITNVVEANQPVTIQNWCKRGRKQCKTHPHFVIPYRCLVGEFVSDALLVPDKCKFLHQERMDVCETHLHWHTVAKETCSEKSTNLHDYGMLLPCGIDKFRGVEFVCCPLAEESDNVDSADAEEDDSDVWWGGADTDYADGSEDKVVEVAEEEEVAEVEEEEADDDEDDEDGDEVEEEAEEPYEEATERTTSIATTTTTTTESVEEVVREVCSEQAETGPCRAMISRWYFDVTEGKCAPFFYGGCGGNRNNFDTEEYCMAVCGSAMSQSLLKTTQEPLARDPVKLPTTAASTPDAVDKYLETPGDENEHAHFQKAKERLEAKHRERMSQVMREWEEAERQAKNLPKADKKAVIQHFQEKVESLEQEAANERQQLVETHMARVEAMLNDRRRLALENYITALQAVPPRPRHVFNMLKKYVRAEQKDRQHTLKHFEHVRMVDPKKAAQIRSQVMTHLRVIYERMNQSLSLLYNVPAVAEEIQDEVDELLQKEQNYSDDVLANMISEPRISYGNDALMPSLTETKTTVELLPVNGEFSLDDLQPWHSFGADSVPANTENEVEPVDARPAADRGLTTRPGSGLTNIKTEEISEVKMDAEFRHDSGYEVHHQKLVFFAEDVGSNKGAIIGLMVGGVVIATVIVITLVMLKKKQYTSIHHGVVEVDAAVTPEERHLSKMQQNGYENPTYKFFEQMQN

BCRP = assay: Efflux ratio of apparent permeability in MDCK cells expressing human BCRP; type: ADME, cell-based, Canis lupus familiaris; settings: dog
MDR1 = assay: Efflux ratio of apparent permeability in MDCK cells expressing human MDR1; type: ADME, cell-based, Canis lupus familiaris; settings: dog
[4] = Cmax in Rhesus macaque brain treated bolus injected into sural vein for 5 secs measured 30 to 120 mins by PET analysis; type: ADME, organism-based, Macaca mulatta; set-up: time upper 120 min, time lower 30 min; settings: rhesus monkey, in vivo, iv
[5] = Half life in human liver microsomes; type: ADME, Microsome
[6] = Apparent permeability in MDCK cells; type: ADME, cell-based, Canis lupus familiaris; settings: dog
[7] = Cmax in C57BL/6 mouse brain at 0.05 mg/kg, iv; type: ADME, organism-based; set-up: route intravenous, dose 0.05 mg/kg
[8] = Tmax in Rhesus macaque brain treated bolus injected into sural vein for 5 secs measured 30 to 120 mins by PET analysis; type: ADME, organism-based, Macaca mulatta; settings: rhesus monkey, in vivo, iv; time 30-120 min
[9] = Half life in mouse liver microsomes; type: ADME, Microsome
[10] = AUC (5 to 60 min) in C57BL/6 mouse brain at 0.05 mg/kg, iv; type: ADME, organism-based; set-up: dose 0.05 mg/kg
[11] = Stability in human plasma assessed as half life; type: ADME, cell-free
[12] = Tmax in Cynomolgus macaque brain treated bolus injected into sural vein for 5 secs by PET analysis; type: ADME, organism-based, Macaca fascicularis; settings: cynomolgus monkey, in vivo, iv, 5 s; time 5 sec
[13] = Stability in mouse plasma assessed as half life; type: ADME, cell-free
[14] = Fraction unbound in brain concentration ratio in C57BL/6 mouse at 0.05 mg/kg, iv; type: ADME, organism-based
[15] = Half life in cynomolgus monkey liver microsomes; type: ADME, Macaca fascicularis, Microsome
[16] = AUC in Rhesus macaque brain to plasma ratio treated bolus injected into sural vein for 5 secs measured 30 to 120 mins by PET analysis; type: ADME, organism-based, Macaca mulatta; settings: rhesus monkey, iv, time 30-120 min
[17] = Fraction unbound in plasma concentration ratio in C57BL/6 mouse at 0.05 mg/kg, iv; type: ADME, organism-based
[18] = AUC in Cynomolgus macaque brain to plasma ratio treated bolus injected into sural vein for 5 secs measured 30 to 120 mins by PET analysis; type: ADME, organism-based, Macaca fascicularis; settings: cynomolgus monkey, iv, time 30-120 min
[19] = Cmax in Cynomolgus macaque brain treated bolus injected into sural vein for 5 secs measured 30 to 120 mins by PET analysis; type: ADME, organism-based, Macaca fascicularis; set-up: time upper 120 min, time lower 30 min; settings: cynomolgus monkey, in vivo, iv
[20] = Unbound brain-to-plasma concentration ratio in C57BL/6 mouse at 0.05 mg/kg, iv; type: ADME, organism-based; settings: brain and plasma, read-out: K(p,uu,brain)
[21] = Drug metabolism in C57BL/6 mouse brain assessed as oxidative metabolite M2a at 0.05 mg/kg, iv; type: ADME, organism-based; settings: in vivo
[22] = Drug metabolism in C57BL/6 mouse plasma assessed as oxidative metabolite M2a at 0.05 mg/kg, iv; type: ADME, organism-based; settings: in vivo

fraction unbound at 6 h, 5 µM [1]	IC50 ([2]; read-out: IC50)	Activity [3]	Structure (SMILES)	further results
0.46	26 nM		Cn1cc(NC(=O)c2ccn3c(n2)nc2ccccc23)ccc1=O	
	5.7 nM	130%	CNc1ccc(-c2cn3c(n2)sc2cc(OCCF)ccc23)cc1	
0.24	351 nM		COc1ccc2c(c1)nc1nc(C(=O)NC3CC3)ccn12	
0.29	8.4 nM	24%	O=C(Nc1ccccn1)c1ccn2c(n1)nc1ccccc12	
0.7	302 nM		Cn1cc(NC(=O)c2ccn3c(n2)nc2ccccc23)cnc1=O	
0.03	2.8 nM	-29%	COc1ncc(NC(=O)c2ccn3c(n2)nc2ccccc23)cc1C	
0.03	4.3 nM	100%	COc1ccc2c(c1)sc1nc(C(=O)Nc3cccnc3)cn12	
0.64	45 nM		O=C(Nc1ccc(=O)[nH]c1)c1ccn2c(n1)nc1ccccc12	
0.03	2.8 nM		COc1ccc(NC(=O)c2ccc3c4cnccc4n(C(=O)OC(C)(C)C)c3n2)cn1	efflux ratio (BCRP): > 7.3; efflux ratio (MDR1): 2
	401 nM		COc1ccc2c(c1)nc1nc(C(=O)N3CC(N4CCOCC4)C3)ccn12	
0.1	5.8 nM	21%	COc1cc(NC(=O)c2ccn3c(n2)nc2ccccc23)cnc1OC	

Second part, the molecule before the results:

Structure (SMILES)	fraction unbound at 6 h, 5 µM [1]	IC50 ([2]; read-out: IC50)	Activity [3]	further results
COc1ccc2c(c1)nc1nc(C(=O)Nc3cccnn3)ccn12	0.54	17 nM		
COc1ccc2c(c1)nc1nc(C(=O)Nc3ccc(OC)nc3)ccn12	0.1	2.3 nM	13%	
COc1ccc(C(=O)Nc2ccn3c(n2)nc2ccccc23)cn1	0.16	1.6 nM		efflux ratio (BCRP): 2.1; efflux ratio (MDR1): 0.5
COc1ccc(NC(=O)c2ccc3c(c2)nc2ncccn23)cn1	0.38	69 nM		efflux ratio (BCRP): 25; efflux ratio (MDR1): 0.6
[11CH3]Oc1ccc(NC(=O)c2ccn3c(n2)nc2ccccc23)cn1	0.11	3.6 nM		Cmax [4]: 3.2 %ID; efflux ratio (BCRP): 0.9; half-life [5]: 8 min; Papp [6]: 9.4 ×10⁻⁶ cm/s; Cmax [7]: 21 nM; Tmax [8]: 0.8 min; half-life [9]: 8 min; AUC(0-t) [10]: 3 nM·h; half-life [11]: 127 min; Tmax [12]: 0.8 min; half-life [13]: 100 min; fraction unbound [14]: 0.11; half-life [15]: 1 min; Ratio AUC [16]: 0.9; fraction unbound [17]: 0.09; Ratio AUC [18]: 0.3; Cmax [19]: 3.5 %ID; efflux ratio (MDR1): 0.5; Kp uu [20]: 0.9
COc1ccc2c(c1)nc1nc(C(=O)Nc3cnc(C)c(C)c3)ccn12				Fu ([1]; 6 h, 5 µM): Nd(Insoluble); IC50 [2]: Nd(Insoluble)
COc1ccc(COc2ccn3c(n2)nc2ccccc23)cn1	0.08	54 nM		efflux ratio (BCRP): 0.5; efflux ratio (MDR1): 0.5
COc1ccc2c(c1)nc1nc(C(=O)Nc3cccnc3)ccn12	0.15	10 nM	17%	
COc1ccc2c(c1)nc1nc(C(=O)N3Cc4cccnc4C3)ccn12	0.32	4.1 nM	0%	
COc1cncc(NC(=O)c2ccn3c(n2)nc2ccccc23)c1	0.21	3.5 nM	25%	efflux ratio (BCRP): 2.7; half-life [5]: 12 min; Papp [6]: 12.5 ×10⁻⁶ cm/s; Cmax [7]: 17 nM; half-life [9]: 4 min; AUC(0-t) [10]: 2 nM·h; half-life [11]: > 480 min; half-life [13]: 215 min; fraction unbound [14]: 0.21; Drug metabolism [21]: Metabolite_Detected; half-life [15]: 4 min; fraction unbound [17]: 0.07; Drug metabolism [22]: Metabolite_Detected; efflux ratio (MDR1): 0.8; Kp uu [20]: 1
COc1ccc2c(c1)nc1nc(C(=O)Nc3ccccn3)ccn12	0.18	6.8 nM	41%	
COc1ccc2c(c1)nc1nc(C(=O)NC3CCCc4cccnc43)ccn12 (configuration not stated)	0.17	48 nM	8%	
Cc1cc(NC(=O)c2ccn3c(n2)nc2ccccc23)cnc1C	0.02	1.4 nM	21%	
COc1ccc(NC(=O)c2ccc3c4cnccc4n(C)c3n2)cn1	0.04	1.3 nM		
FCCC1CCN(c2ccn3c(n2)nc2ccccc23)CC1	0.12	> 333 nM	34%	
COc1ccc(NC(=O)c2ccc3c(n2)oc2ccncc23)cn1	0.06	3.3 nM		
CN(C(=O)c1ccn2c(n1)nc1ccccc12)c1ccc(=O)[nH]c1	0.51	> 1000 nM		
O=C(Nc1cccnc1)c1ccn2c(n1)nc1ccccc12	0.21	39 nM	-12%	
COc1ccc(NC(=O)c2ccnc(Nc3ccncc3)n2)cn1	0.02	5.3 nM		
COc1cncc(NC(=O)c2ccn3c(n2)nc2cc(OC)ccc23)c1	0.15	2.1 nM	5%	
Cn1nc(NC(=O)c2ccn3c(n2)nc2ccccc23)ccc1=O	0.37	16 nM	12%	
C#CCCCNC(=O)c1ccn2c(n1)nc1cc(OC)ccc12	0.22	72 nM		
COc1ccc2c(c1)nc1nc(C(=O)Nc3ccc(=O)n(C)n3)ccn12	0.25	12 nM		
COc1ccc(COc2ccn3c(n2)nc2ccccc23)nc1		48 nM		efflux ratio (BCRP): 1.3; efflux ratio (MDR1): 0.5
COc1ccc2c(c1)nc1nc(C(=O)Nc3ccncn3)ccn12	0.23	9.2 nM	30%	
COc1ccc(COc2ccc3oc(-c4ccc(=O)n(C)n4)nc3c2)nc1				Cmax [7]: 124 nM; AUC(0-t) [10]: 65 nM·h

Source: ChEMBL document CHEMBL4825731, “[11C]CHDI-626, a PET Tracer Candidate for Imaging Mutant Huntingtin Aggregates with Reduced Binding to AD Pathological Proteins” (J Med Chem, 2021)
